Measured values from patent US20250101042A1, “KRAS G12D MODULATING COMPOUNDS” (Gilead Sciences, Inc., priority 2023, published 2025).

Key:
GP2D (KRAS G12D) cells = assay: 2D Cell Viability Assay (CellTiter-Glo); assay type: cell-based; conditions: 4 days, CellTiter-Glo luminescence
Experimental: Example B. 2D Cell Viability Assay
Compounds were tested in a 384-well format for their ability to inhibit the viability of GP2D (KRAS G12D) cells in 2D assays. Compounds were serially diluted (1:3) in DMSO. The LabCyte ECHO Acoustic dispenser system was used to pre-spot assay plates with 200 nL of test molecule per well. 1000 cells/well (40 μL volume per well) in RPMI medium with 10% FBS, and Penicillin-Streptomycin-Glutamine were plated in pre-spotted 384-well plates (Greiner, Catalog #781076) on the BioTEK EL406 liquid dispenser with a 5 μL dispensing cassette (BioTek 7170011). The plates were incubated at 37° C., 5% CO2 for 4 days before addition of CellTiter-Glo (CTG) reagent and measurement of luminescence signal. EC50 values were defined as the compound concentration that causes a 50% decrease in luminescence signal and were calculated using a sigmoidal dose-response model to generate curve fits.

GDP-loaded KRAS G12D = GDP-loaded KRAS G12D (Homo sapiens, UniProt P01116, G12D); assay: KRAS G12D (GDP) Biochemical Assay (TR-FRET probe displacement); assay type: binding; conditions: 0.5 nM enzyme, 2 hours at room temperature
Experimental: Example A. KRAS G12D (GDP) Biochemical Assay
Compounds were tested for binding to GDP-loaded KRAS G12D in a 384-well assay format using a TR-FRET probe displacement assay in buffer consisting of 50 mM Hepes (pH 7.4), 150 mM NaCl, 5 mM MgCl2 and 0.005% Tween-20. […] Compounds were serially diluted (1:3) in DMSO. The LabCyte ECHO Acoustic dispenser system was used to pre-spot the assay plates (384-well Non-Binding Surface plates, Corning, Catalog #3824) with 50 nL of compound. The compounds were pre-incubated with 5 μL of 2× final enzyme concentration for 30 minutes before adding 5 μL of 2× final concentration of Eu-streptavidin and TR-FRET probe (10 μL final reaction volume). The plates were incubated at room temperature for 2 hours before measuring TR-FRET ratio on the Envision plate reader. IC50 values were defined as the compound concentration that causes a 50% decrease in TR-FRET ratio and were calculated using a sigmoidal dose-response model to generate curve fits.

GDP-loaded KRAS G12D, sequence (P01116 1-188 isoform P01116-2 G12D): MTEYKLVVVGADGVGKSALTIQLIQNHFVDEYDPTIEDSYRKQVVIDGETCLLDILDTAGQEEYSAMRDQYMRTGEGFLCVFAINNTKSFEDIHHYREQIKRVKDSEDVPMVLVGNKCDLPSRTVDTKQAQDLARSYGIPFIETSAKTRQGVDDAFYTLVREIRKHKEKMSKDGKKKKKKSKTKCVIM

## C[C@H]1Cc2c(Cl)c(-c3cccc4sc(N)c(C#N)c34)c(F)c3nc(OC[C@@]45CCCN4C[C@H](F)C5)nc(c23)N2C[C@H]3CC[C@H](N3)[C@H]12 (atropisomer, axis not shown; (aS)) [Example 57, 2-amino-4-((1S,4R,11R,14S,14aS)-12-chloro-10-fluoro-8-(((2R,7aS)-2-fluorotetrahydro-1H-pyrrolizin-7a(5H)-yl)methoxy)-14-methyl-1,2,3,4,5,13,14,14a-octahydro-1,4-epiminoazepino[1′,2′:1,7]azepino[2,3,4-de]quinazolin-11-yl)benzo[b]thiophene-3-carbonitrile]
GP2D (KRAS G12D) cells; GP2d, 96 h
  EC50: 0.94 nM
GDP-loaded KRAS G12D
  IC50: 0.06 nM

## Cc1cc(N)nc(-c2c(Cl)c3c4c(nc(OC[C@@]56CCCN5C[C@H](F)C6)nc4c2F)N2C[C@H]4CC[C@H](N4)[C@H]2CCC3)c1C(F)(F)F (single isomer, unassigned) [Example 2]
GP2D (KRAS G12D) cells; GP2d, 96 h
  EC50: 65 nM
GDP-loaded KRAS G12D
  IC50: 8.8 nM

## Cc1cc(N)nc(-c2c(Cl)c3c4c(nc(OC[C@@]56CCCN5C[C@H](F)C6)nc4c2F)N2C[C@H]4CC[C@H](N4)[C@H]2CCC3)c1C(F)(F)F (single isomer, unassigned) [Example 3]
GP2D (KRAS G12D) cells
  EC50: > 100 nM
GDP-loaded KRAS G12D
  IC50: 87 nM

## Cc1cc(N)nc(-c2c(Cl)c3c4c(nc(OC[C@@]56CCCN5C[C@H](F)C6)nc4c2F)N2C[C@H]4CC[C@H](N4)[C@H]2CC3)c1C(F)(F)F (single isomer, unassigned) [Example 5]
GP2D (KRAS G12D) cells
  EC50: 14 nM
GDP-loaded KRAS G12D
  IC50: 1.1 nM

## Cc1cc(N)nc(-c2c(Cl)c3c4c(nc(OC[C@@]56CCCN5C[C@H](F)C6)nc4c2F)N2C[C@H]4CC[C@H](N4)[C@H]2CC3)c1C(F)(F)F (single isomer, unassigned) [Example 6]
GP2D (KRAS G12D) cells
  EC50: 1.2 nM
GDP-loaded KRAS G12D
  IC50: 0.05 nM

## Cc1cc(N)nc(-c2c(F)c3c4c(nc(OC[C@@]56CCCN5C[C@H](F)C6)nc4c2F)N2C[C@H]4CC[C@H](N4)[C@H]2CC3)c1C(F)(F)F (single isomer, unassigned) [Example 21]
GP2D (KRAS G12D) cells
  EC50: 12 nM
GDP-loaded KRAS G12D
  IC50: 2 nM

## Cc1cc(N)nc(-c2c(F)c3c4c(nc(OC[C@@]56CCCN5C[C@H](F)C6)nc4c2F)N2C[C@H]4CC[C@H](N4)[C@H]2CC3)c1C(F)(F)F (single isomer, unassigned) [Example 22]
GP2D (KRAS G12D) cells
  EC50: 1.6 nM
GDP-loaded KRAS G12D
  IC50: 0.08 nM

## C[C@H]1Cc2c(F)c(-c3ncc(F)c4sc(N)c(C#N)c34)c(F)c3nc(OC[C@@]45CCCN4C[C@H](F)C5)nc(c23)N2C[C@H]3CC[C@H](N3)[C@H]12 (single isomer, unassigned) [Example 50]
GP2D (KRAS G12D) cells; GP2d, 96 h
  EC50: 2.6 nM
GDP-loaded KRAS G12D
  IC50: 0.12 nM

## C[C@H]1Cc2c(F)c(-c3ncc(F)c4sc(N)c(C#N)c34)c(F)c3nc(OC[C@@]45CCCN4C[C@H](F)C5)nc(c23)N2C[C@H]3CC[C@H](N3)[C@H]12 (single isomer, unassigned) [Example 51]
GP2D (KRAS G12D) cells
  EC50: 3.4 nM
GDP-loaded KRAS G12D
  IC50: 0.8 nM

## N#Cc1c(N)sc2c(F)ccc(-c3c(F)c4c5c(nc(OC[C@@]67CCCN6C[C@H](F)C7)nc5c3F)N3C[C@H]5CC[C@H](N5)[C@H]3CC4)c12 (single isomer, unassigned) [Example 59]
GP2D (KRAS G12D) cells
  EC50: 24 nM
GDP-loaded KRAS G12D
  IC50: 4.2 nM

## N#Cc1c(N)sc2c(F)ccc(-c3c(F)c4c5c(nc(OC[C@@]67CCCN6C[C@H](F)C7)nc5c3F)N3C[C@H]5CC[C@H](N5)[C@H]3CC4)c12 (single isomer, unassigned) [Example 60]
GP2D (KRAS G12D) cells
  EC50: 1.8 nM
GDP-loaded KRAS G12D
  IC50: 0.03 nM

## Cc1cc(N)nc(-c2nc3c4c(nc(OC[C@@]56CCCN5C[C@H](F)C6)nc4c2F)N2C[C@H]4CC[C@H](N4)[C@H]2CC3)c1C(F)(F)F [Example 1, 6-((5aR,6S,9R)-1-fluoro-12-(((2R,7aS)-2-fluorotetrahydro-1H-pyrrolizin-7a(5H)-yl)methoxy)-4,5,5a,6,7,8,9,10-octahydro-3,10a,11,13,14-pentaaza-6,9-methanonaphtho[1,8-ab]heptalen-2-yl)-4-methyl-5-(trifluoromethyl)pyridin-2-amine]
GP2D (KRAS G12D) cells; GP2d, 96 h
  EC50: 16 nM
GDP-loaded KRAS G12D
  IC50: 0.84 nM

## Cc1cc(N)nc(-c2nc3c4c(nc(OC[C@@]56CCCN5C[C@H](F)C6)nc4c2F)N2C[C@H]4CC[C@H](N4)[C@@H]2CC3)c1C(F)(F)F [Example 4, 6-((5aS,6S,9R)-1-fluoro-12-(((2R,7aS)-2-fluorotetrahydro-1H-pyrrolizin-7a(5H)-yl)methoxy)-4,5,5a,6,7,8,9,10-octahydro-3,10a,11,13,14-pentaaza-6,9-methanonaphtho[1,8-ab]heptalen-2-yl)-4-methyl-5-(trifluoromethyl)pyridin-2-amine]
GP2D (KRAS G12D) cells; GP2d, 96 h
  EC50: > 100 nM
GDP-loaded KRAS G12D
  IC50: 62 nM

## Cc1cc(N)nc(-c2nc3c4c(nc(OC[C@@]56CCCN5C[C@H](F)C6)nc4c2F)N2C[C@H]4CC[C@H](N4)[C@H]2CCC3)c1C(F)(F)F [Example 7, 6-((6aR,7S,10R)-1-fluoro-13-(((2R,7aS)-2-fluorotetrahydro-1H-pyrrolizin-7a(5H)-yl)methoxy)-5,6,6a,7,8,9,10,11-octahydro-4H-3,11a,12,14,15-pentaaza-7,10-methanocyclohepta[4,5]cycloocta[1,2,3-de]naphthalen-2-yl)-4-methyl-5-(trifluoromethyl)pyridin-2-amine]
GP2D (KRAS G12D) cells; GP2d, 96 h
  EC50: 11 nM
GDP-loaded KRAS G12D
  IC50: 0.7 nM

## Cc1cc(N)[n+]([O-])c(-c2nc3c4c(nc(OC[C@@]56CCCN5C[C@H](F)C6)nc4c2F)N2C[C@H]4CC[C@H](N4)[C@H]2CCC3)c1C(F)(F)F [Example 8, 6-amino-2-((6aR,7S,10R)-1-fluoro-13-(((2R,7aS)-2-fluorotetrahydro-1H-pyrrolizin-7a(5H)-yl)methoxy)-5,6,6a,7,8,9,10,11-octahydro-4H-3,11a,12,14,15-pentaaza-7,10-methanocyclohepta[4,5]cycloocta[1,2,3-de]naphthalen-2-yl)-4-methyl-3-(trifluoromethyl)pyridine 1-oxide]
GP2D (KRAS G12D) cells; GP2d, 96 h
  EC50: > 100 nM
GDP-loaded KRAS G12D
  IC50: > 100 nM

## Cc1cc(N)nc(-c2cc3c4c(nc(OC[C@@]56CCCN5C[C@H](F)C6)nc4c2F)N2C[C@H]4CC[C@H](N4)[C@H]2CC3)c1C(F)(F)F [Example 9, 6-((1S,4R,14aR)-10-fluoro-8-(((2R,7aS)-2-fluorotetrahydro-1H-pyrrolizin-7a(5H)-yl)methoxy)-1,2,3,4,5,13,14,14a-octahydro-1,4-epiminoazepino[1′,2′:1,7]azepino[2,3,4-de]quinazolin-11-yl)-4-methyl-5-(trifluoromethyl)pyridin-2-amine]
GP2D (KRAS G12D) cells; GP2d, 96 h
  EC50: 37 nM
GDP-loaded KRAS G12D
  IC50: 2.5 nM

## Cc1cc(N)nc(-c2c(C)c3c4c(nc(OC[C@@]56CCCN5C[C@H](F)C6)nc4c2F)N2C[C@H]4CC[C@H](N4)[C@H]2CC3)c1C(F)(F)F [Example 10, 6-((1S,4R,14aR)-10-fluoro-8-(((2R,7aS)-2-fluorotetrahydro-1H-pyrrolizin-7a(5H)-yl)methoxy)-12-methyl-1,2,3,4,5,13,14,14a-octahydro-1,4-epiminoazepino[1′,2′:1,7]azepino[2,3,4-de]quinazolin-11-yl)-4-methyl-5-(trifluoromethyl)pyridin-2-amine]
GP2D (KRAS G12D) cells; GP2d, 96 h
  EC50: 10 nM
GDP-loaded KRAS G12D
  IC50: 0.29 nM

## Cc1c(F)c(N)nc(-c2nc3c4c(nc(OC[C@@]56CCCN5C[C@H](F)C6)nc4c2F)N2C[C@H]4CC[C@H](N4)[C@H]2CCC3)c1C(F)(F)F [Example 11, 3-fluoro-6-((6aR,7S,10R)-1-fluoro-13-(((2R,7aS)-2-fluorotetrahydro-1H-pyrrolizin-7a(5H)-yl)methoxy)-5,6,6a,7,8,9,10,11-octahydro-4H-3,11a,12,14,15-pentaaza-7,10-methanocyclohepta[4,5]cycloocta[1,2,3-de]naphthalen-2-yl)-4-methyl-5-(trifluoromethyl)pyridin-2-amine]
GP2D (KRAS G12D) cells; GP2d, 96 h
  EC50: 34 nM
GDP-loaded KRAS G12D
  IC50: 12 nM

## N#Cc1c(N)sc2cccc(-c3nc4c5c(nc(OC[C@@]67CCCN6C[C@H](F)C7)nc5c3F)N3C[C@H]5CC[C@H](N5)[C@H]3CCC4)c12 [Example 12, 2-amino-4-((6aR,7S,10R)-1-fluoro-13-(((2R,7aS)-2-fluorotetrahydro-1H-pyrrolizin-7a(5H)-yl)methoxy)-5,6,6a,7,8,9,10,11-octahydro-4H-3,11a,12,14,15-pentaaza-7,10-methanocyclohepta[4,5]cycloocta[1,2,3-de]naphthalen-2-yl)benzo[b]thiophene-3-carbonitrile]
GP2D (KRAS G12D) cells; GP2d, 96 h
  EC50: 3.5 nM
GDP-loaded KRAS G12D
  IC50: 0.17 nM

## C[C@H]1Cc2nc(-c3cccc4sc(N)c(C#N)c34)c(F)c3nc(OC[C@@]45CCCN4C[C@H](F)C5)nc(c23)N2C[C@H]3CC[C@H](N3)[C@H]12 [Example 13, 2-amino-4-((5S,5aS,6S,9R)-1-fluoro-12-(((2R,7aS)-2-fluorotetrahydro-1H-pyrrolizin-7a(5H)-yl)methoxy)-5-methyl-4,5,5a,6,7,8,9,10-octahydro-3,10a,11,13,14-pentaaza-6,9-methanonaphtho[1,8-ab]heptalen-2-yl)benzo[b]thiophene-3-carbonitrile]
GP2D (KRAS G12D) cells; GP2d, 96 h
  EC50: 2 nM
GDP-loaded KRAS G12D
  IC50: 0.45 nM
